Structures are written as SMILES. Activity calls are given as the source filed them. The calls are words filed in the database; no cut-off is given here.

Series [1] concerns HepG2. The experiment in a line: Cytoprotective activity in human HepG2 cells transfected with siPXR assessed as reduction of BaP-induced tail moment at 10 uM after 24 hrs by comet assay. Type of series: functional, cell-based.
Series [2] in a line: Cytotoxicity against neonatal HDF assessed as cell viability at 10 uM after 24 hrs by MTT assay relative to control. Type of series: functional. To be noted: Homo sapiens, read-out: Activity. On the technique in general: Tetrazolium assays rely on reduction of a dye to a coloured formazan, in cell work by metabolically active cells.
For series [3], the target named is T1, Nuclear factor erythroid 2-related factor 2 (Homo sapiens) (UniProt Q16236).
T1 sequence (whole entry): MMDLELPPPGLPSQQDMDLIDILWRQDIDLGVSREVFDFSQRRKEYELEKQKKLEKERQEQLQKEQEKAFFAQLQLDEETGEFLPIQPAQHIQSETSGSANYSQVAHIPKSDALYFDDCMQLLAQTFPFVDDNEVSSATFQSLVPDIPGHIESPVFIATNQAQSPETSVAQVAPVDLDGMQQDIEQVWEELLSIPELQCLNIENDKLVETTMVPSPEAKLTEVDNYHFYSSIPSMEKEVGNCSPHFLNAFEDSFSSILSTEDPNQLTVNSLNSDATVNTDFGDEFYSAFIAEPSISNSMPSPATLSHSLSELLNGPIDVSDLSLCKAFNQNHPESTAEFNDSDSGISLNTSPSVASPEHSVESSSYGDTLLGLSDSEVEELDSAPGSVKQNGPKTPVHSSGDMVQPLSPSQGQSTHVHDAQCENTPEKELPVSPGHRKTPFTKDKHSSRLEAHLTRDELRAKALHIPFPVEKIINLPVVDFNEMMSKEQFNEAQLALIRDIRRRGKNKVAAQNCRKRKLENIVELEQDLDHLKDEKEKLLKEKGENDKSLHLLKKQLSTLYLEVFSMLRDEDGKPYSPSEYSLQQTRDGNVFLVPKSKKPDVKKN
The experiment in a line: Induction of Nrf2 nuclear translocation in BaP-treated neonatal HDF at 10 uM after 2 hrs by DAPI staining-based confocal scanning laser microcopic analysis in presence of PI3K/Akt inhibitor LY294002.

Series [4] has as its target T1, Nuclear factor erythroid 2-related factor 2 (Homo sapiens). The experiment in a line: Induction of Nrf2 nuclear translocation in BaP-treated neonatal HDF at 10 uM after 2 hrs by DAPI staining-based confocal scanning laser microcopic analysis.
Series [5] has as its system HDF. The experiment in a line: Cytoprotective activity in neonatal HDF assessed as reduction of BaP-induced tail moment at 10 uM after 24 hrs by comet assay in presence of PI3K/Akt inhibitor LY294002. Type of series: functional. Particulars: Homo sapiens.
The subject of another series is Plasma. The experiment in a line: Plasma concentration in human at 60 mg by HPLC-MS analysis. The format is ADME.
For series [6], the target named is T1, Nuclear factor erythroid 2-related factor 2 (Homo sapiens). Briefly: Induction of Nrf2 nuclear translocation in BaP-treated neonatal HDF assessed as upregulation of NQO1 mRNA expression at 10 uM after 24 hrs by real-time PCR analysis relative to BaP-treated control. In general terms: In qPCR the cycle at which signal appears reflects the starting amount.
Series [7] relates to HDF. The experiment in a line: Cytoprotective activity in neonatal HDF assessed as reduction of BaP-induced tail moment at 10 uM after 24 hrs by comet assay. The format is functional. Particulars: Homo sapiens.
A short description of series [8]: Cytoprotective activity in neonatal HDF assessed as reduction of BaP-induced DNA strand breakage by measuring tunnel positive cells at 10 uM after 24 hrs (reference value: 15.96%). Type of series: functional, Homo sapiens. Also noted: scale not given: the % may be the effect or the level left.
For series [9], the system named is HepG2. Briefly: Cytoprotective activity in human HepG2 cells assessed as reduction of BaP-induced tail moment at 10 uM after 24 hrs by comet assay. The format is functional, cell-based.
Series [10] deals with HDF. The experiment in a line: Cytoprotective activity in neonatal HDF assessed as reduction of BaP-induced cell death at 10 uM after 24 hrs by MTT assay. The format is functional. Particulars: Homo sapiens.
Series [11] concerns the target RAC-alpha serine/threonine-protein kinase (Homo sapiens) (UniProt P31749). Briefly: Induction of AKT phosphorylation at Ser473 in neonatal HDF at 10 uM by Western blot analysis. Particulars: TDE = time-dependent effect.
For series [12], the target named is T2, Nuclear receptor subfamily 1 group I member 2 (Homo sapiens, UniProt O75469).
T2 sequence (O75469 whole entry): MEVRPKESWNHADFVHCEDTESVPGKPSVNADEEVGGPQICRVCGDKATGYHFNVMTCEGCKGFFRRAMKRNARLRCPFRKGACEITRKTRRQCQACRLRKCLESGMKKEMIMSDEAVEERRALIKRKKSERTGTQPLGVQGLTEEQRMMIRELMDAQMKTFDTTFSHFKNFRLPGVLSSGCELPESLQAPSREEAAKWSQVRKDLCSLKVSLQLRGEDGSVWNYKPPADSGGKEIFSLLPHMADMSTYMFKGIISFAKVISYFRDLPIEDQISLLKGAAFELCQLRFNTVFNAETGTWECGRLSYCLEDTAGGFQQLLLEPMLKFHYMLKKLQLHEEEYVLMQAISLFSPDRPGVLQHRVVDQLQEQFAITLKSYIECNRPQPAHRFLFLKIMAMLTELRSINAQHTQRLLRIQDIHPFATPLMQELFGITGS
Briefly: Competitive binding affinity to PXR in human HepG2 cells at 0.01 to 50 uM by FRET analysis in presence of […]. The format is cell-based.

For another series, the species on record is Homo sapiens. Briefly: Induction of ERK phosphorylation at Thr202/Try204 in neonatal HDF at 10 uM by Western blot analysis. Particulars: TDE = time-dependent effect. A general note: Immunoblotting shows a protein as a band on a membrane.
Series [13] deals with T1, Nuclear factor erythroid 2-related factor 2 (Homo sapiens). Briefly: Induction of Nrf2 nuclear translocation in neonatal HDF at 10 uM after 2 hrs by DAPI staining-based confocal scanning laser microcopic analysis.

Chain of RAC-alpha serine/threonine-protein kinase (Homo sapiens) (P31749 whole entry): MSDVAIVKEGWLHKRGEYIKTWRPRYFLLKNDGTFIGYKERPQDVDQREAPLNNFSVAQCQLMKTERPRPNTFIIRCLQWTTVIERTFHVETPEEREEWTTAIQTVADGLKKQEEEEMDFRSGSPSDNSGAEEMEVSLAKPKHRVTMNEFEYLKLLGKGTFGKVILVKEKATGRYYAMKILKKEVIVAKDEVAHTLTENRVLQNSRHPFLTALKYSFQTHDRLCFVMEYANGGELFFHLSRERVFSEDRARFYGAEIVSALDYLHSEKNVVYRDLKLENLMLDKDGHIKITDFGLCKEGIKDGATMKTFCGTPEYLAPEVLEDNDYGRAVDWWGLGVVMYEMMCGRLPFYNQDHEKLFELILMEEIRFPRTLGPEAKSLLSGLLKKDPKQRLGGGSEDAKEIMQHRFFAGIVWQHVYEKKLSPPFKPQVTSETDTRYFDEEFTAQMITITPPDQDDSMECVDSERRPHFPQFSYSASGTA

Regarding `CC(C)=CCC[C@](C)(O)[C@H]1CC[C@]2(C)[C@@H]1[C@H](O)C[C@@H]1[C@@]3(C)CC[C@H](O[C@@H]4O[C@H](CO)[C@@H](O)[C@H](O)[C@H]4O[C@@H]4O[C@H](CO)[C@@H](O)[C@H](O)[C@H]4O)C(C)(C)[C@@H]3CC[C@]12C`, the outcome (in the series with HepG2 [1]; in series [3]; with HDF [5]) was inactive. Moreover, in series [2], the viability at 10 µM is 124%. The result (in series [4]; with HDF [7]; in the series on HepG2 [9]; in the series with HDF [10]; in series [13]) was Active. The concentration in the series with Plasma came out at 3 nM. Moreover, in [6], the fold change (FC) came to 2. For the same molecule, the Activity in series [8] is 3.07%; in [11], “tde”; in series [12] it was “Active”; in the series filed under Homo sapiens, “tde”.

Consider `CC(C)=CCC[C@@](C)(O)[C@H]1CC[C@]2(C)[C@@H]1[C@H](O)C[C@@H]1[C@@]3(C)CC[C@H](O[C@@H]4O[C@H](CO)[C@@H](O)[C@H](O)[C@H]4O[C@@H]4O[C@H](CO)[C@@H](O)[C@H](O)[C@H]4O)C(C)(C)[C@@H]3CC[C@]12C`, for which, in series [2], the viability at 10 µM worked out at 105%. For the same molecule, the result with HDF [7] and with HDF [10] was inactive. Besides, the Activity in [8] came to 12.76%.

Regarding `CC(C)=CCC[C@](C)(O[C@@H]1O[C@H](CO)[C@@H](O)[C@H](O)[C@H]1O)[C@H]1CC[C@]2(C)[C@@H]1[C@H](O)C[C@@H]1[C@@]3(C)CC[C@H](O)C(C)(C)[C@@H]3[C@@H](O[C@@H]3O[C@H](CO)[C@@H](O)[C@H](O)[C@H]3O)C[C@]12C` [GINSENOSIDE RG1], the viability at 10 µM in series [2] was determined as 98%. Also, the result in the series with HDF [7] and with HDF [10] was inactive. Further, in series [8], the Activity worked out at 20.97%.

For `CC(C)=CCC[C@](C)(O[C@@H]1O[C@H](CO[C@@H]2O[C@H](CO)[C@@H](O)[C@H](O)[C@H]2O)[C@@H](O)[C@H](O)[C@H]1O)[C@H]1CC[C@]2(C)[C@@H]1[C@H](O)C[C@@H]1[C@@]3(C)CC[C@H](O[C@@H]4O[C@H](CO)[C@@H](O)[C@H](O)[C@H]4O[C@@H]4O[C@H](CO)[C@@H](O)[C@H](O)[C@H]4O)C(C)(C)[C@@H]3CC[C@]12C` [GINSENOSIDE RB1], the viability at 10 µM in series [2] worked out at 91%. In addition, the result in the series with HDF [7] and in the series with HDF [10] was inactive. In addition, in series [8], the Activity worked out at 9.77%.

Values taken from ChEMBL document CHEMBL3526152, “Cytoprotective effect of 20S-Rg3 on benzo[a]pyrene-induced DNA damage” (Drug Metab Dispos, 2012).
